Assay: Measurement of solubility of sulfites in distilled water
Settings: for Concentration, Calculated value: calculated from mass and molecular weight; for Concentration, Measured value (sulfite concentration, solubility): method 0-A
Description: To a cuvette for measuring absorbance (1×1×4 cm, manufactured by Hitachi High-Technologies Co.), 3 ml of 0.1 N hydrochloric acid (manufactured by Wako Pure Chemical Co., Ltd.) was added. To the cuvette, 30 μl of a sulfite solution diluted with distilled water was added, the cuvette was covered with parafilm, and inverted 3 times to mix the solutions.
Then, the mass, volume and pH at that time were measured. In addition, with regard to each solution, the sulfite concentration was measured in accordance with the method 0-A described above.
With regard to the concentration in the table, the calculated value represents the sulfite concentration (M (mol/l)) calculated from the mass and the molecular weight of each dissolved sulfite. In addition, the measured value represents the sulfite concentration (M) measured in accordance with the method 0-A described above.

| Compound | pH of saturated solution (30° C.) | Concentration, Calculated value (30° C.) | Concentration, Measured value (sulfite concentration, solubility) (30° C.) | pH of saturated solution (70° C.) | Concentration, Calculated value (70° C.) | solubility (30° C., distilled water, saturated) |
| --- | --- | --- | --- | --- | --- | --- |
| O=S([O-])O.[Na+] [Sodium bisulfite, sodium bisulfite] | 4.4 | 5.2 M | 5.0 M | 4.5 | 6.5 M | – |
| ammonium sulfite monohydrate | – | – | 3.5 M | – | – | – |
| O=S([O-])[O-].[Na+].[Na+] [Sodium sulfite, sodium sulfite] | 10.3 | – | – | 10.5 | – | 0.20 g/mL |

— patent US20080070240A2, “COMPOSITION FOR DEAMINATING DNA AND METHOD OF DETECTING METHYLATED DNA” (Toyo Boseki Kabushiki Kaisha, priority 2004, published 2008)
